Publication PMC8618187 (Nanomaterials, 2021)
Like-named read-outs stand apart in the source and are kept apart here.

How the values were obtained:
[1] = In vitro PTX release with kinetic modelling (with/without GSH); assay type: physicochemical; conditions: without GSH
Experimental: Glutathione (GSH)-triggered release was investigated in vitro from Ms, R-Ms, PR-Ms, and PT-R-Ms formulations (without GSH) and from PT-R-Ms in the presence of 20 mM GSH.
Redox responsive multifunctional micelles remained indolent in the physiological environment and became activated when they reached a reductive environment, which is another approach for targeted site-specific delivery. As a proof-of-concept, glutathione (GSH)-triggered release (to mimic the redox tumor microenvironment) was investigated in vitro from Ms, R-Ms, PR-Ms, and PT-R-Ms formulations (without GSH) and from PT-R-Ms in the presence of 20 mM GSH. The controlled burst release was confirmed by applying kinetic models of drug release (zero-order, Higuchi, Korsmeyer–Peppas, and Hixon Crowell) to the different formulations, and the results are gathered in Table 2. The Korsmeyer–Peppas model was proven to be suitable to explain the release kinetics from the PT-R-Ms, which is a prerequisite for polymeric systems.

human macrophages = test: Biocompatibility against human macrophages (MTT); assay type: cell-based; conditions: high concentrations
Experimental: Biocompatibility studies of pure PTX, Ms, RMs, PR-Ms, and PT-R-Ms were performed against human macrophages. Ficoll-percoll gradient technique was used to isolate human macrophages. Ficoll solution was prepared by dissolving 5.6 g of ficoll in 9.5 mL deionized water and 5 mL gastrografin to achieve a density of 1.070 g/mL. The fresh human blood (10 cm^3) was diluted three times with Hanks buffer salt solution (HBSS), layered onto a percoll gradient and then centrifuged at 400× g for 5 min to isolate the macrophage layer. The separated cells were suspended in RPMI medium (10% FBS, 100 U/mL penicillin, 0.1 mg/mL streptomycin, and 25 mM HEPES) and incubated at 5% CO2. […] Normal cells were taken as negative controls, while cells treated with 1% Triton X were used as positive controls to investigate the viability.

HCT-116 cells [2] = test: Cell apoptosis by flow cytometry (Annexin V FITC/PI); assay type: cell-based, human; set-up: dose or concentration left out as unconfirmed; conditions: HCT-116, 48 h
From the text: After treatment, the cells were harvested and washed twice with cold PBS.

[3] = Oral pharmacokinetics of PTX; assay type: in vivo, rats
From the text: Healthy female rats weighing 120–150 g were selected and fasted overnight with free access to water and were randomly distributed into four groups and each group had four rats (n = 4).

[4] = In vivo biodistribution (fluorescence of excised organs and tumors); set-up: species or system rats; conditions: oral
Experimental: The fluorotagged PT-R-Ms were given orally to rats by oral gavage. After 48 h, rats were sacrificed and their major organs were excised to investigate the formulation distribution within them. The fluorescence intensity of the excised organs (heart, liver, spleen, and kidney) was examined using the iBox Explorer2 (iBox® Explorer2 Imaging Microscope; UVP Ltd. The system was set on a 535/45 nm excitation filter and a 605/50 nm emission filter with the automated BioLite™ MultiSpectral Light Source. Images were taken at 0.17× magnification, and the intensity was kept at 6 using the 3.2 MP OptiChemi 610 camera (Vision Works® LS Acquisition, AnlyticJena, Jena, Germany). An analysis software was used to study the images.

rats [5] = conditions: rat, in vivo, po, 20 mg/kg
Experimental: (§1) Healthy, female rats weighing 150 g and aged 10–14 weeks were taken from the animal house. Rats were divided into 4 groups (n = 4) and kept under a standard condition of food and water in the controlled environment. […] The dose (20 mg/kg) was administered orally through oral gavage. […] After 14 days, the rats were sacrificed for blood and serum biochemistry and tissue histology studies [29].
(§2) The blood from each rat was drawn through cardiac puncture into BD vacutainer blood collection tubes. […] The clear supernatant was carefully removed and stored at −20 °C. Liver function tests (LFTs) including alkaline phosphatase (ALP), serum glutamic-pyruvic transaminase (SGPT), serum glutamic-oxaloacetic transaminase (SGOT) and bilirubin, renal functions tests (RFTs) including urea and creatinine, serum electrolytes (Na, Mg, Ca, and P), glucose and total protein were analyzed using the serum.
(§3) Changes in the organs weight were measured to evaluate the toxicity of tested formulations. The vital organs (heart, kidneys, liver, and spleen) were removed from the rats after being sacrificed, washed with normal saline, and then weighed individually. The weights of organs from treated groups were compared with a control group and body mass index was calculated using the following formula [30]: organ−body weight index (%)=organ weight/body weight×100%
(§4) Vital organs (liver, kidney, heart, and spleen) were examined for toxicity and to notice any pathological changes [31]. The organs were stored in 10% formalin solution. A paraffin section (0.5 µm) was cut into the same size as the organ via a rotary microtome and was properly fixed. Tissue sections were then fixed onto glass slides followed by staining with hematoxylin and eosin periodic acid Schiff (PAS). The sections were examined under a microscope for any toxic effect produced by the redox and non-redox micelles.

in vitro = conditions: rat, pH 6.5
Experimental: Briefly, the study was conducted on the intestine of healthy rats weighing between 250–300 g. The rats were sacrificed and the abdomen was opened with a middle incision. The intestine was immediately removed, thoroughly washed with Krebs ringer solution (pH 6.5), and cut into pieces of 4–5 cm. The intestine was everted by carefully passing a narrow glass rod from one end of the intestine and then gently rolling it on a glass rod. All the pieces were stored in an oxygenated Krebs ringer solution at 4 °C until further use. […] Each segment was tied at one end with a silk suture, and 1 mL of sample (1 mg/mL) was carefully filled in the sac using a hypodermic syringe and the other end was tied with a silk suture. […] All filled sacs were immersed in tubes filled with 10 mL of oxygenated Krebs solution and incubated at 37 °C under gentle mechanical shaking. The samples were collected at predefined times from the surrounding medium and replaced with the same amount of fresh solution. […] The apparent permeability was calculated using the following equation:Apparent permeability (µg/cm^2) = (concentration × volume)/mucosal surface area
The mucosal surface area was calculated assuming that the intestine is a cylinder by using the formula:Mucosal surface area (cm^2) = circumference (π × diameter) × length

rats [6] = test: Acute oral toxicity (OECD 425), serum biochemistry, histopathology; conditions: single oral dose of 20 mg of PTX/kg, after 14 days
Experimental: as §1, §2, §3, §4

HCT-116 cells [7] = test: Cellular uptake of curcumin by fluorescence microscopy; assay type: cell-based, human; conditions: curcumin loaded into PT-R-Ms micelles, HCT-116, 0, 6, 12 h
Experimental: To analyze the internalization of curcumin (a P-gP inhibitor) into tumor cells, HCT-116 tumor cells were used. Curcumin as a fluorescent probe was encapsulated within the core of PT-R-Ms micelles following a similar procedure to that mentioned earlier for PTX loaded micelles. The HCT-116 cells were seeded into 6 well plates at a density of 1 × 10^6 cells/well. After 24 h the cells became confluent and were incubated with curcumin-loaded PT-R-Ms for different time periods (0, 6, 12 h). Upon incubation, the medium was removed and the cells were washed with cold PBS. Subsequently, the uptake of curcumin was monitored by fluorescence microscopy (Evos® FL Cell Imaging System, Thermo Fisher Scientific, Waltham, MA, USA). Ex vivo assays based on the tumor tissue slice model were used to analyze the curcumin uptake by inhibition of P-gP efflux pump overexpressed on tumor cells, as reported earlier. Different slides of tumor tissue were prepared and stained with curcumin-loaded PT-R-Ms. Similarly, HCT-116 tumor tissue cells were incubated for different time intervals to monitor the uptake of curcumin.

[8] = female, rat, plasma, oral gavage, 20 mg/kg

## CC(=O)O[C@H]1C(=O)[C@@]2(C)[C@H]([C@H](OC(=O)c3ccccc3)[C@]3(O)C[C@H](OC(=O)[C@H](O)[C@@H](NC(=O)c4ccccc4)c4ccccc4)C(C)=C1C3(C)C)[C@]1(OC(C)=O)CO[C@@H]1C[C@@H]2O [PTX, paclitaxel]
[1]
  Higuchi Model K0: 40.117
  Hixon Crowell Model K0: 0.190
  Korsmeyer–Peppas Model N: 0.701
  Zero Order K0: 21.01
Human macrophages
  toxicity against human macrophages: cytotoxic
HCT-116 cells [2]
  percentage of apoptotic cells: 28.57 ± 0.06%
[3]; MEC 35 ng/mL, oral
  time above the minimum effective concentration / within the therapeutic window: 2 h
[3]; female, rat, plasma, po, 20 mg/kg
  bioavailability: 7.5%
[3]; [8]
  Cmax: 70.69 ± 0.14 ng/mL
  half-life: 32.9 ± 2.2 h
[3]; female, rat, plasma, oral gavage, 20 mg/kg, read-out: AUC 0-96
  AUC(0-t): 4271 ± 8.4 ng·h/mL
[3]; female, rat, plasma, oral gavage, 20 mg/kg, read-out: MRT 0-96
  MRT last: 54.9 ± 2.7 h
[3]; female, rat, plasma, oral gavage, 20 mg/kg, read-out: Tmax
  Tmax: 4 ± 0.2 h
[3]; oral gavage, 20 mg/kg
  Tmax: 2 h
[4]
  biodistribution: liver: significantly higher uptake in the liver
Rats [5]
  histopathological changes in the liver tissue: cytoplasmic degeneration, necrosis, hemorrhage, and infiltration of inflammatory cells
  histopathology of heart tissue: lesions, myocarditis, and infiltration of inflammatory cells
  histopathology of kidney tissue: distorted glomeruli, dilated tubules, edema exudate, mild necrosis, and infiltration of inflammatory cells
  histopathology of spleen tissue: distorted lymphoid architecture
In vitro
  Papp A→B at 1 mg/mL: 0.43 ± 0.2 ×10⁻⁶ cm/s
  Papp B→A at 1 mg/mL: 2.35 ± 0.2 ×10⁻⁶ cm/s
Rats [6]
  Mortality, tissue damage, or bodyweight change: not observed

## COc1cc(/C=C/C(=O)CC(=O)/C=C/c2ccc(O)c(OC)c2)ccc1O [curcumin]
HCT-116 cells [7]
  time of maximum curcumin uptake: 12 h
